From patent US10596166B2, “Combination composition comprising huperzine” (priority 2015, dated 2020)

Tests used:
[1] = tested on: primary cortical neurons injured by glutamate; test: glutamate toxicity on primary cortical neurons (neuron survival, neurite network); type: cell-based, rat; conditions: glutamate 40 μM, 20 min
Description: Rat cortical neurons were cultured as described by Singer et al., 1999 [J. Neuroscience 19(7), 2455-2463] and Callizot et al. 2013 [J. Neurosc. Res. 91(5), 706-716].
Briefly, pregnant females (Wistar; JanvierLabs, St Berthevin, France) at 15 days of gestation were killed by cervical dislocation. Foetuses were collected and immediately placed in ice-cold L15 Leibovitz medium (Pan Biotech, Aidenbach, Germany, Batch: 4120413) with a 2% penicillin (10,000 U/ml) and streptomycin (10 mg/ml) solution (PS; Pan Biotech, Aidenbach, Germany) and 1% bovine serum albumin (BSA; Pan Biotech, Aidenbach, Germany). Cortex was treated for 20 min at 37° C. with a trypsin-EDTA (Pan Biotech, Aidenbach, Germany) solution at a final concentration of 0.05% trypsin and 0.02% EDTA. The dissociation was stopped by addition of Dulbecco's modified Eagle's medium (DMEM) with 4.5 g/liter of glucose (Pan Biotech, Aidenbach, Germany), containing DNAse I grade II (final concentration 0.5 mg/ml; Pan Biotech, Germany) and 10% fetal calf serum (FCS; Invitrogen, Cergy Pointoise, France). Cells were mechanically dissociated by three forced passages through the tip of a 10-ml pipette. Cells were then centrifuged at 515 g for 10 min at 4° C. The supernatant was discarded, and the pellet was resuspended in a defined culture medium consisting of Neurobasal medium (Invitrogen, Cergy Pointoise, France) with a 2% solution of B27 supplement (Invitrogen, Cergy Pointoise, France), 2 mmol/liter of L-glutamine (Pan Biotech, Aidenbach, Germany), 2% of PS solution, and 10 ng/ml of brain-derived neurotrophic factor (BDNF; Pan Biotech, Aidenbach, Germany). Viable cells were counted in a Neubauer cytometer, using the trypan blue exclusion test. The cells were seeded at a density of 30,000 per well in 96-well plates precoated with poly-L-lysine (Corning Biocoat, Tewksbury, USA) and were cultured at 37° C. in an air (95%)-CO2 (5%) incubator. The medium was changed every 2 days.
On day 13, the cultures were exposed for 20 minutes to glutamate 40 μM in the absence or presence of Huperzia serrata extracts. Then the cells were washed out and new fresh medium containing or not Huperzia serrata extracts was added for another 48 hours.
The cells were then fixed by a cold solution ethanol/acetic acid (95:5 v/v) for 5 minutes at −20° C. After permeabilization with 0.1% of saponin (Sigma), cells were incubated for 2 hours with mouse monoclonal antibody against microtubule-associated-protein 2 (MAP 2; Sigma) at dilution of 1/400 in PBS containing 1% foetal calf serum (Invitrogen) and 0.1% of saponin.
Neuron survival assessment: For each condition 6 wells were assessed, 20 pictures per well were taken using InCell Analyzer™ 1000 (GE Healthcare) with 20× magnification to assess cell bodies (MAP 2 staining). Analysis of picture was done using Developer software (GE Healthcare), the number of neurons per picture was recorded. A mean of neuron number of the 20 pictures was automatically calculated per well, then one data was provided per well (total of 6 raw data were provided per condition).
Neurite network length assessment: For each condition 6 wells were assessed, 20 pictures per well were taken using InCell Analyzer™ 1000 with 20× magnification (20 pictures at X20 representing ˜80% of the total well surface), to assess MAP-2 staining. Analysis of picture was done using Developer software, the total neurite length per picture was recorded. A mean neurite length of the 20 pictures was automatically calculated per well, then one data was provided per well (total of 6 raw data were provided per condition).
The protocol used in these assays is the same as described in example 1. After 13 days of neuron culture, the candidate compounds were solved in DMSO and diluted in culture medium. […]

[2] = tested on: mice; conditions: adult and aged mice; cited from earlier work
[3] = tested on: ALS patients; conditions: several months; cited from earlier work

## O=C(O)c1cc(O)c(O)c(O)c1 [GA, gallic acid]
[1]; 10 and 50 μM
  neuron survival: ~80%
[1]; GA 10 pM to 50 μM
  neurite network: no protection

## CC1=C[C@H]2Cc3[nH]c(=O)ccc3[C@]3(C1)NCCC[C@H]23 [HupB, Huperzine B]
[2]
  memory retention and memory retrieval: improved memory retention and memory retrieval

## Nc1nc2ccc(OC(F)(F)F)cc2s1 [Riluzole]
[3]
  prolongation of survival: ~7%

## COc1cc(/C=C/C(=O)O)cc(OC)c1O [SA, sinapic acid]
[1]; 100, 10 and 1 nM
  neuron survival: ~80%
[1]; SA 10 pM to 50 μM
  neurite network: no protective effect
[1]; SA at the lowest concentrations
  neuron survival: inactive

## O=C(O)/C=C/c1ccc(O)cc1 [pCouA, para-coumaric acid]
[1]; 100 nM and 1 μM
  neuron survival: ~80%
[1]; only 1 μM
  neurite network: protective effect
[1]; p-CouA at the lowest concentrations
  survival and neurite network: inactive
